From patent US9670227B2, “Thienopyrimidine derivatives, a process for their preparation and pharmaceutical compositions containing them” (LES LABORATOIRES SERVIER, priority 2013, dated 2017)

Columns and labels:
[1] = system: H929 multiple myeloma tumour line; test: In vitro cytotoxicity, Microculture Tetrazolium Assay; assay type: cell-based; details: Homo sapiens, NCI-H929, 48 h, H929 cells, 48 hours exposure, MTT; read-out: IC50 (μM) MTT H929
Method: The cytotoxicity studies were carried out on the H929 multiple myeloma tumour line.
The cells are distributed onto microplates and exposed to the test compounds for 48 hours.

Mcl-1 protein = Mcl-1 protein (UniProtKB primary accession number: Q07820) (Homo sapiens, UniProt Q07820); test: Inhibition of Mcl-1 by fluorescence polarisation, Method 1; assay type: binding; details: fluorescence polarisation; Method 1, or Method 2; read-out: IC50 (M) Mcl-1 FP
Mcl-1 protein, sequence (Q07820 whole entry): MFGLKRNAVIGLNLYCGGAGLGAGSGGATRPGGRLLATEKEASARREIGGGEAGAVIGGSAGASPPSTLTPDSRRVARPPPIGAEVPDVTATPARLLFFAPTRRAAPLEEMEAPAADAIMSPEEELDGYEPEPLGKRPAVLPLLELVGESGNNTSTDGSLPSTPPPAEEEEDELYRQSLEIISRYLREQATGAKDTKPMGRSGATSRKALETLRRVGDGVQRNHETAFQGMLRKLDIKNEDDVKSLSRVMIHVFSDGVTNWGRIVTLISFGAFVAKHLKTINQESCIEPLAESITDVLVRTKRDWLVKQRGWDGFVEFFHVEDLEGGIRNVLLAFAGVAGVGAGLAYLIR
Outline: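 Compounds were tested as 11-point serial dilutions at 5% final DMSO against 5 nM Mcl-1 with 1 nM fluorescein-labelled ligand in 10 mM HEPES, 150 mM NaCl, 0.05% Tween 20, pH 7.4. Relative binding potency was read by fluorescence polarisation.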

IC50 (Mcl-1 protein) [M] | Compound | IC50 [1] [µM]
4.3e-09 | COc1nccc(COc2ccccc2CC(Oc2ncnc3sc(-c4ccco4)c(-c4ccc(OCCN5CCN(C(C)C)CC5)c(Cl)c4C)c23)C(=O)O)n1 [Example 672, (2R)-2-{[(5Sa)-5-(3-chloro-2-methyl-4-{2-[4-(propan-2-yl)piperazin-1-yl]ethoxy}phenyl)-6-(furan-2-yl)thieno[2,3-d]pyrimidin-4-yl]oxy}-3-{2-[(2-methoxypyrimidin-4-yl)methoxy]phenyl}propanoic acid] | 0.019
1.1e-08 | Cc1c(OCCN2CCN(C)CC2)ccc(-c2c(-c3ccco3)sc3ncnc(OC(Cc4ccccc4OCC(F)(F)F)C(=O)O)c23)c1C [Example 673, (2R)-2-[(5Sa)-5-[2,3-dimethyl-4-[2-(4-methylpiperazin-1-yl)ethoxy]phenyl]-6-(2-furyl)thieno[2,3-d]pyrimidin-4-yl]oxy-3-[2-(2,2,2-trifluoroethoxy)phenyl]propanoic acid] | 0.576
1.9e-08 | CC#Cc1sc2ncnc(OC(Cc3ccccc3OC)C(=O)O)c2c1-c1ccc(OCCN2CCNCC2)c(Cl)c1C [Example 684, (2R)-2-{[(5Sa)-5-{3-chloro-2-methyl-4-[2-(piperazin-1-yl)ethoxy]phenyl}-6-(prop-1-yn-1-yl)thieno[2,3-d]pyrimidin-4-yl]oxy}-3-(2-methoxyphenyl)propanoic acid] | 2.23
2.9e-08 | CC#Cc1sc2ncnc(OC(Cc3ccccc3OC)C(=O)O)c2c1-c1ccc(OCCN2CCN(C)CC2)c(F)c1C [Example 687, (2R)-2-{[(5Sa)-5-{3-fluoro-2-methyl-4-[2-(4-methylpiperazin-1-yl)ethoxy]phenyl}-6-(prop-1-yn-1-yl)thieno[2,3-d]pyrimidin-4-yl]oxy}-3-(2-methoxyphenyl)propanoic acid] | 3.66
2.3e-08 | COCOc1cc(F)ccc1CC(Oc1ncnc2sc(-c3ccc(F)o3)c(-c3ccc(OCCN4CCN(C)CC4)c(Cl)c3C)c12)C(=O)O [Example 690, (2R)-2-{[(5Sa)-5-{3-chloro-2-methyl-4-[2-(4-methylpiperazin-1-yl)ethoxy]phenyl}-6-(5-fluorofuran-2-yl)thieno[2,3-d]pyrimidin-4-yl]oxy}-3-[4-fluoro-2-(methoxymethoxy)phenyl]propanoic acid] | 0.178
9.6e-09 | Cc1c(-c2c(-c3ccc(F)o3)sc3ncnc(OC(Cc4ccc(F)cc4OCc4cnccn4)C(=O)O)c23)ccc(OCCN2CCN(C)CC2)c1Cl [Example 691, (2R)-2-{[(5Sa)-5-{3-chloro-2-methyl-4-[2-(4-methylpiperazin-1-yl)ethoxy]phenyl}-6-(5-fluorofuran-2-yl)thieno[2,3-d]pyrimidin-4-yl]oxy}-3-[4-fluoro-2-(pyrazin-2-ylmethoxy)phenyl]propanoic acid] | 0.037
1e-08 | COc1cc(F)ccc1CC(Oc1ncnc2sc(-c3ccc(F)o3)c(-c3ccc(OCCN4CCN(C)CC4)c(Cl)c3C)c12)C(=O)O [Example 692, (2R)-2-{[(5Sa)-5-{3-chloro-2-methyl-4-[2-(4-methylpiperazin-1-yl)ethoxy]phenyl}-6-(5-fluorofuran-2-yl)thieno[2,3-d]pyrimidin-4-yl]oxy}-3-(4-fluoro-2-methoxyphenyl)propanoic acid] | 0.079
9.3e-10 | Cc1c(-c2c(-c3ccc(F)nc3)sc3ncnc(OC(Cc4ccccc4OCc4ccnn4CC(F)(F)F)C(=O)O)c23)ccc(OCCN2CCN(C)CC2)c1Cl [Example 693, (2R)-2-{[(5Sa)-5-{3-chloro-2-methyl-4-[2-(4-methylpiperazin-1-yl)ethoxy]phenyl}-6-(6-fluoropyridin-3-yl)thieno[2,3-d]pyrimidin-4-yl]oxy}-3-(2-{[1-(2,2,2-trifluoroethyl)-1H-pyrazol-5-yl]methoxy}phenyl)propanoic acid] | 0.101
6.4e-09 | COCCOc1ccc(-c2sc3ncnc(OC(Cc4ccccc4OCc4ccnn4CC(F)(F)F)C(=O)O)c3c2-c2ccc(OCCN3CCN(C)CC3)c(Cl)c2C)cn1 [Example 694, (2R)-2-[((5Sa)-5-{3-chloro-2-methyl-4-[2-(4-methylpiperazin-1-yl)ethoxy]phenyl}-6-[6-(2-methoxyethoxy)pyridin-3-yl]thieno[2,3-d]pyrimidin-4-yl)oxy]-3-(2-{[1-(2,2,2-trifluoroethyl)-1H-pyrazol-5-yl]methoxy}phenyl)propanoic acid] | 0.183
1.6e-08 | Cc1c(-c2c(-c3ccc(OCC(F)(F)F)nc3)sc3ncnc(OC(Cc4ccccc4OCc4ccnn4CC(F)(F)F)C(=O)O)c23)ccc(OCCN2CCN(C)CC2)c1Cl [Example 695, (2R)-2-[((5Sa)-5-{3-chloro-2-methyl-4-[2-(4-methylpiperazin-1-yl)ethoxy]phenyl}-6-[6-(2,2,2-trifluoroethoxy)pyridin-3-yl]thieno[2,3-d]pyrimidin-4-yl)oxy]-3-(2-{[1-(2,2,2-trifluoroethyl)-1H-pyrazol-5-yl]methoxy}phenyl)propanoic acid] | 0.268
9.6e-09 | COc1ccc(-c2sc3ncnc(OC(Cc4ccccc4OCc4ccnn4CC(F)(F)F)C(=O)O)c3c2-c2ccc(OCCN3CCN(C)CC3)c(Cl)c2C)cn1 [Example 696, (2R)-2-{[(5Sa)-5-{3-chloro-2-methyl-4-[2-(4-methylpiperazin-1-yl)ethoxy]phenyl}-6-(6-methoxypyridin-3-yl)thieno[2,3-d]pyrimidin-4-yl]oxy}-3-(2-{[1-(2,2,2-trifluoroethyl)-1H-pyrazol-5-yl]methoxy}phenyl)propanoic acid] | 0.05
9.3e-09 | COc1nccc(COc2ccccc2CC(Oc2ncnc3sc(-c4cccc(F)c4F)c(-c4ccc(OCCN5CCN(C)CC5)c(Cl)c4C)c23)C(=O)O)n1 [Example 703, (2R)-2-{[(5Sa)-5-{3-chloro-2-methyl-4-[2-(4-methylpiperazin-1-yl)ethoxy]phenyl}-6-(2,3-difluorophenyl)thieno[2,3-d]pyrimidin-4-yl]oxy}-3-{2-[(2-methoxypyrimidin-4-yl)methoxy]phenyl}propanoic acid] | 0.03
9.9e-09 | CCn1nccc1COc1ccccc1CC(Oc1ncnc2sc(-c3cccc(F)c3F)c(-c3ccc(OCCN4CCN(C)CC4)c(Cl)c3C)c12)C(=O)O [Example 704, (2R)-2-{[(5Sa)-5-{3-chloro-2-methyl-4-[2-(4-methylpiperazin-1-yl)ethoxy]phenyl}-6-(2,3-difluorophenyl)thieno[2,3-d]pyrimidin-4-yl]oxy}-3-{2-[(1-ethyl-1H-pyrazol-5-yl)methoxy]phenyl}propanoic acid] | 0.025
1.7e-08 | Cc1c(-c2c(-c3cccc(F)c3F)sc3ncnc(OC(Cc4ccccc4OCc4ccnc(C(F)(F)F)n4)C(=O)O)c23)ccc(OCCN2CCN(C)CC2)c1Cl [Example 705, (2R)-2-{[(5Sa)-5-{3-chloro-2-methyl-4-[2-(4-methylpiperazin-1-yl)ethoxy]phenyl}-6-(2,3-difluorophenyl)thieno[2,3-d]pyrimidin-4-yl]oxy}-3-(2-{[2-(trifluoromethyl)pyrimidin-4-yl]methoxy}phenyl)propanoic acid] | 0.02
